Activity calls are given as the source filed them. No cut-off for these calls is given here.
How the values were obtained:
[1] = Toxicity in BALB/c nude mouse xenografted with human MDA-MB-231 cells assessed as damage in heart at 38 mg/kg, ip administered on every 2 days for 28 days by H and E staining based analysis; assay type: organism-based; conditions: in vivo, 672 h, time 28 day
MDA-MB-231 [2] = test: Induction of ROS generation in human MDA-MB-231 cells at 5 uM incubated for 24 hrs by DCFH-DA staining based flow cytometric analysis; assay type: functional, cell-based
MDA-MB-231 [3] = test: Antitumor activity against human MDA-MB-231 cells xenografted in BALB/c nude mouse assessed as increase in apoptotic cells at 38 mg/kg, ip administered on every 2 days for 28 days by H and E staining based analysis; assay type: functional, organism-based; conditions: time 28.0 day
MDA-MB-231 [4] = test: Induction of apoptosis in human MDA-MB-231 cells as increase in red fluorescence at 5 uM incubated for 24 hrs by Calcein AM/PI staining based confocal microscopy; assay type: functional, cell-based
MDA-MB-231 [5] = test: Induction of apoptosis in human MDA-MB-231 cells assessed as decrease in Bcl-2 level at 5 uM incubated for 24 hrs by Western blot analysis; assay type: functional, cell-based
MDA-MB-231 [6] = test: Induction of apoptosis in human MDA-MB-231 cells assessed as increase in cleaved caspase-3 level at 5 uM incubated for 24 hrs by Western blot analysis; assay type: functional, cell-based
[7] = Cytotoxicity against human MCF-10A cells incubated for 72 hrs by MTT assay; assay type: toxicity, cell-based
MDA-MB-231 [8] = test: Antitumor activity against human MDA-MB-231 cells xenografted in BALB/c nude mouse assessed as decrease in Ki-67 expression at 38 mg/kg, ip administered on every 2 days for 28 days by H and E staining based analysis; assay type: functional, organism-based; conditions: time 28.0 day
MDA-MB-231 [9] = test: Antitumor activity against human MDA-MB-231 cells xenografted in BALB/c nude mouse at 38 mg/kg, ip administered on every 2 days for 28 days relative to control; assay type: functional; conditions: MDA-MB-231, 672 h, time 28 day, read-out: TGI
MDA-MB-231 [10] = test: Effect on total MEK in human MDA-MB-231 cells at 5 uM incubated for 24 hrs by Western blot analysis; assay type: functional, cell-based
MDA-MB-231 [11] = test: Effect on total ERK1/2 in human MDA-MB-231 cells at 5 uM incubated for 24 hrs by Western blot analysis; assay type: functional, cell-based
MDA-MB-231 [12] = test: Antitumor activity against human MDA-MB-231 cells harboring wild-type BRCA incubated for 72 hrs by MTT assay; assay type: functional, cell-based; conditions: MDA-MB-231, 72 h
MDA-MB-231 [13] = test: Effect on ERK1/2 phosphorylation in human MDA-MB-231 cells at 5 uM incubated for 24 hrs by Western blot analysis; assay type: functional, cell-based
MDA-MB-231 [14] = test: Effect on RAF expression in human MDA-MB-231 cells at 5 uM incubated for 24 hrs by Western blot analysis; assay type: functional, cell-based
[15] = Toxicity in BALB/c nude mouse xenografted with human MDA-MB-231 cells assessed as body weight change at 38 mg/kg, ip administered on every 2 days for 28 days; assay type: organism-based; conditions: in vivo, 672 h, time 28 day
[16] = molecular target: Poly [ADP-ribose] polymerase 1 (Homo sapiens, UniProt P09874); test: Inhibition of PARP1 (unknown origin) using histone as substrate incubated for 60 mins by ELISA
MDA-MB-231 [17] = test: Anti-migration activity in human MDA-MB-231 cells assessed as wound closure area at 1 uM incubated for 24 hrs by wound healing assay (reference value: 75.6 %); assay type: functional
MDA-MB-231 [18] = test: Effect on MEK phosphorylation in human MDA-MB-231 cells at 5 uM incubated for 24 hrs by Western blot analysis; assay type: functional, cell-based
MDA-MB-231 [19] = test: Antitumor activity against human MDA-MB-231 cells xenografted in BALB/c nude mouse assessed as increase in necrotic cells at 38 mg/kg, ip administered on every 2 days for 28 days by H and E staining based analysis; assay type: functional, organism-based; conditions: time 28.0 day
MDA-MB-468 = test: Antitumor activity against human MDA-MB-468 cells harboring wild-type BRCA incubated for 72 hrs by MTT assay; assay type: functional, cell-based; conditions: MDA-MB-468, 72 h
MDA-MB-231 [20] = test: Induction of apoptosis in human MDA-MB-231 cells assessed as increase in cleaved PARP level at 5 uM incubated for 24 hrs by Western blot analysis; assay type: functional, cell-based
MDA-MB-231 [21] = test: Induction of depolarization of mitochondrial membrane potential in human MDA-MB-231 cells at 5 uM incubated for 24 hrs by JC-1 staining based flow cytometry relative to control; assay type: functional
[22] = Toxicity in BALB/c nude mouse xenografted with human MDA-MB-231 cells assessed as damage in spleen at 38 mg/kg, ip administered on every 2 days for 28 days by H and E staining based analysis; assay type: organism-based; conditions: in vivo, 672 h, time 28 day
MDA-MB-436 = test: Antitumor activity against BRCA 1-deficient human MDA-MB-436 cells incubated for 72 hrs by MTT assay; assay type: functional, cell-based; conditions: MDA-MB-436, 72 h
MDA-MB-231 [23] = test: Induction of DNA damage in human MDA-MB-231 cells assessed as increase in gamma-H2AX level at 5 uM incubated for 24 hrs by immunofluorescence based analysis; assay type: functional, cell-based
MDA-MB-231 [24] = test: Effect on CRAF expression in human MDA-MB-231 cells at 5 uM incubated for 24 hrs by Western blot analysis; assay type: functional, cell-based
MDA-MB-231 [25] = test: Induction of apoptosis in human MDA-MB-231 cells assessed as increase in Bax level at 5 uM incubated for 24 hrs by Western blot analysis; assay type: functional, cell-based
[26] = Toxicity in BALB/c nude mouse xenografted with human MDA-MB-231 cells assessed as drug tolerance at 38 mg/kg, ip administered on every 2 days for 28 days; assay type: organism-based; conditions: in vivo, 672 h, time 28 day
HCC1937 = test: Antitumor activity against BRCA 1-deficient human HCC1937 cells incubated for 72 hrs by MTT assay; assay type: functional, cell-based; conditions: HCC1937, 72 h
MDA-MB-231 [27] = test: Induction of apoptosis in human MDA-MB-231 cells at 5 uM incubated for 24 hrs by Annexin V-FITC/PI staining based flow cytometry relative to control; assay type: functional
MDA-MB-231 [28] = test: Induction of DNA damage in human MDA-MB-231 cells assessed as increase in olive tail moments at 5 uM incubated for 24 hrs by Comet assay; assay type: functional, cell-based
[29] = Toxicity in BALB/c nude mouse xenografted with human MDA-MB-231 cells assessed as damage in kidney at 38 mg/kg, ip administered on every 2 days for 28 days by H and E staining based analysis; assay type: organism-based; conditions: in vivo, 672 h, time 28 day
[30] = Toxicity in BALB/c nude mouse xenografted with human MDA-MB-231 cells assessed as damage in liver at 38 mg/kg, ip administered on every 2 days for 28 days by H and E staining based analysis; assay type: organism-based; conditions: in vivo, 672 h, time 28 day
MDA-MB-231 [31] = test: Induction of apoptosis in human MDA-MB-231 cells assessed as increase in cleaved caspase-9 level at 5 uM incubated for 24 hrs by Western blot analysis; assay type: functional, cell-based
MDA-MB-231 [32] = test: […] activity in human MDA-MB-231 cells at 1 uM incubated for 24 hrs by wound healing assay; assay type: functional, cell-based
[33] = Toxicity in BALB/c nude mouse xenografted with human MDA-MB-231 cells assessed as damage in lung at 38 mg/kg, ip administered on every 2 days for 28 days by H and E staining based analysis; assay type: organism-based; conditions: in vivo, 672 h, time 28 day

Sequence of Poly [ADP-ribose] polymerase 1 (P09874 whole entry): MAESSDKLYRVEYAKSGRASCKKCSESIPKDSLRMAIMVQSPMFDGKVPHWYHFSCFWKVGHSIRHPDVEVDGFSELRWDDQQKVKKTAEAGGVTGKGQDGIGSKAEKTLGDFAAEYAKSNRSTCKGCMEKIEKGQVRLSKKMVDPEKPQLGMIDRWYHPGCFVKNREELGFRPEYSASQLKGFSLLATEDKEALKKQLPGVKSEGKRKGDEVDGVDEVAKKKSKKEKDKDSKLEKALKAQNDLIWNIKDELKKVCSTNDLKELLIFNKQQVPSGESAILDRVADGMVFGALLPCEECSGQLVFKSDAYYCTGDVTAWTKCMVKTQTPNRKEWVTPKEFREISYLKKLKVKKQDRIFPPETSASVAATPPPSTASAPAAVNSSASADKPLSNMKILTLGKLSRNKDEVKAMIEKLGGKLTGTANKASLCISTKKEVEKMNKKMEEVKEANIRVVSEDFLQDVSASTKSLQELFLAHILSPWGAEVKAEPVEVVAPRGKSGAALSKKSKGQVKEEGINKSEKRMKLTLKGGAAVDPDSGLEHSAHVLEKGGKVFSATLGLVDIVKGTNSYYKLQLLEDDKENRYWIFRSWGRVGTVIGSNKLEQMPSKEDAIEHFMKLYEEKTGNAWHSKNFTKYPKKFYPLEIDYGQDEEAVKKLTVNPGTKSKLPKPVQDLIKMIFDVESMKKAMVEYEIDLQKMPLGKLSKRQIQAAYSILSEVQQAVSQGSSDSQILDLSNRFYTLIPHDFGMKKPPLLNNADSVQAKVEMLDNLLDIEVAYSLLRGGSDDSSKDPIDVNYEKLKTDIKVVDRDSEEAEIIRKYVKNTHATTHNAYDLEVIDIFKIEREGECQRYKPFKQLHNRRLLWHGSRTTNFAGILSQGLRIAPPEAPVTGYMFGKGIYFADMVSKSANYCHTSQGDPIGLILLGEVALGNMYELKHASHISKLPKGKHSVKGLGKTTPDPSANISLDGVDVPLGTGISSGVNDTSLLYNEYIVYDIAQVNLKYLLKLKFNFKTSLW

In the case of COc1cc(OC)c(/C=C/S(=O)(=O)Cc2ccc(OC)c(NCCCC(=O)N3CCN(C(=O)c4cc(Cc5n[nH]c(=O)c6ccccc56)ccc4F)CC3)c2)c(OC)c1, the Activity [1] is reported as “Non-Toxic”, the Activity (MDA-MB-231 [2]) is reported as “Active” and the Activity (MDA-MB-231 [3]) is reported as “Active”. For the same compound, the Activity (MDA-MB-231 [4]) was “Active”, the Activity (MDA-MB-231 [5]) was “Active” and the Activity (MDA-MB-231 [6]) was “Active”. For the same compound, the IC50 at 72 h [7] was over 40000 nM, the Activity (MDA-MB-231 [8]) was “Active” and the inhibition in vivo at 38 mg/kg (MDA-MB-231 [9]) was 61.3%. The Activity (MDA-MB-231 [10]) was “inactive”, the Activity (MDA-MB-231 [11]) was “inactive” and the IC50 (MDA-MB-231 [12]) was 750 nM. The Activity (MDA-MB-231 [13]) was “Active”, the Activity (MDA-MB-231 [14]) was “Active” and the Activity [15] was “Non-Toxic”. The IC50 [16] was 112 nM, the Activity (MDA-MB-231 [17]) was 17.3% and the Activity (MDA-MB-231 [18]) was “Active”. The Activity (MDA-MB-231 [19]) was “Active”, the IC50 (MDA-MB-468) was 1240 nM and the Activity (MDA-MB-231 [20]) was “Active”. The Activity (MDA-MB-231 [21]) was “Active”, the Activity [22] was “Non-Toxic” and the IC50 (MDA-MB-436) was 970 nM. For the same compound, the Activity (MDA-MB-231 [23]) was “Active”, the Activity (MDA-MB-231 [24]) was “Active” and the Activity (MDA-MB-231 [25]) was “Active”. The Activity [26] was “Non-Toxic”, the IC50 (HCC1937) was 1170 nM and the Activity (MDA-MB-231 [27]) was 48.26%. The Activity (MDA-MB-231 [28]) was “Active”, the Activity [29] was “Non-Toxic” and the Activity [30] was “Non-Toxic”. For the same compound, the Activity (MDA-MB-231 [31]) was “Active”, the Activity (MDA-MB-231 [32]) was “Active” and the Activity [33] was “Non-Toxic”.

— ChEMBL document CHEMBL6127102 (Bioorg Med Chem, 2024)
